From patent US20090208583A1, “TABLETS COMPRISING CANDESARTAN CILEXETIL” (Siegfried Generics International AG, priority 2006, published 2009)
Counter-ions that a name gives are not always drawn.

What was measured:
[1] = Storage stability of Example 1 tablets, contamination profile (HPLC peak area); settings: for result with further compounds having a stabilizing action (in words): used instead of triethyl citrate and simethicone, analogously to the preceding examples
[2] = Storage stability of tablets of Examples 2 to 5, amended HPLC method; format: physicochemical; settings: tablets of Examples 2 to 5, 50° C., 2 weeks
From the text: Example 1 was repeated, but with the compounds and concentrations stated in Table 2. Triethyl citrate was applied to a mixture of the active compound, lactose and maize starch, the mixture was granulated with an aqueous solution of hydroxypropylcellulose, the granules were worked up with the additives listed in Table 2 to give the finished end mixture and this mixture was pressed to tablets with a rotary tablet press (Fette P1). Tablets with two different pressing pressures, or two different hardnesses (50 N and 80 N) were prepared and were stored in open brown glass containers at 50° C. for at least two weeks. At the same time, the end mixture which had not been subjected to pressure was stored at 4° C. in closed brown glass containers for the same period of time as a reference sample for comparison.
The tablets from Examples […], 3, 4 and 5 were investigated with an amended HPLC method, which led to other retention times. In this, the peaks correspond to the following compounds:
Peak at 1.7-1.8 min=desethyl-candesartan cilexetil Peak at 3.8-3.9 min=candesartan cilexetil Peak at 9.1-9.2 min=N-ethyl-candesartan cilexetil

Structure (SMILES) | result with further compounds having a stabilizing action (in words) [1] | stabilizing action (in words) [2] | stabilizing action for candesartan cilexetil tablets during storage (in words) ([1]; Example 1 tablets, 50° C., two weeks)
CCCCOC(=O)CCCCCCCCC(=O)OCCCC [dibutyl sebacate] | Analogous results |  | 
CCOC(=O)c1ccccc1C(=O)OCC [diethyl phthalate] | Analogous results |  | 
COC(=O)c1ccccc1C(=O)OC [dimethyl phthalate] | Analogous results |  | 
CCCCOC(=O)CC(O)(CC(=O)OCCCC)C(=O)OCCCC [tributyl citrate] | Analogous results |  | 

Continued, values first:

result with further compounds having a stabilizing action (in words) [1] | stabilizing action (in words) [2] | stabilizing action for candesartan cilexetil tablets during storage (in words) ([1]; Example 1 tablets, 50° C., two weeks) | Structure (SMILES)
 | stabilizing action | stabilizing action | CCOC(=O)CC(O)(CC(=O)OCC)C(=O)OCC [triethyl citrate]
Analogous results |  |  | COC(=O)CC(O)(CC(=O)OC)C(=O)OC [trimethyl citrate]
